Laboratory results taken from US7238830B2, “N-alkylaspartyl dipeptide ester compounds” (Ajinomoto Co., Inc., priority 1998, dated 2007).

Experiment: Sensory evaluation of sweetness (sweetening potency) relative to sucrose
Conditions: for Sweetness (sweetening potency): sensory evaluation; for sweetness potency: values compared to sweetening potency of a 4% aqueous solution of sucrose
Text: For example, the sweetness of N-[N-[3-(3-hydroxy-4-methoxyphenyl)-3-methylbutyl]-L-α-aspartyl]-L-phenylalanine 1-methyl ester was approximately 70000 times that of sugar, the sweetness of N-[N-[3-(3-methyl-4 hydroxyphenyl)-3-methylbutyl]-L-α-aspartyl]-L-phenylalanine 1-methyl ester was approximately 70000 times that of sugar, the sweetness of N-[N-[3-(3-hydroxy-4-methylphenyl)-3-methylbutyl]-L-α- aspartyl]-L-phenylalanine 1-methyl ester was approximately 60000 times that of sugar, and the sweetness of N-[N-((RS)-3-(3 hydroxy-4-methoxyphenyl) butyl]-L-α-aspartyl]-L-phenylalanine 1-methyl ester was approximately 50000 times that of sugar. […] Sensory evaluations can be performed as described in, for example, B. T. Carr, S. D. Pecore, K. M. Gibes and G. E. Dubois, “Sensory Methods for Sweetner Evaluation” in Flavor Measurement, edited by C. T. Ho and C. H. Manley, Marcel Decker, Inc. (1992).

COC(=O)[C@H](Cc1ccccc1)NC(=O)[C@H](CC(=O)O)NCCC(C)(C)c1ccc(O)c(O)c1 [Compound 23, N-[N-[3-(3,4-dihydroxyphenyl)-3-mehylbutyl]-L-α-aspartyl]-L-phenylalanine 1-methyl ester]
Sweetness (sweetening potency): 50000 times the sweetness of sugar
sweetness potency: 50000

COC(=O)[C@H](Cc1ccccc1)NC(=O)[C@H](CC(=O)O)NCCC(C)(C)c1ccc(C)cc1O [Compound 15, N-[N-[3-(2-hydroxy-4-methylphenyl)-3-methylbutyl]-L-α-aspartyl]-L-phenylalanine 1-methyl ester]
Sweetness (sweetening potency): 25000 times the sweetness of sugar
sweetness potency: 25000

COC(=O)[C@H](Cc1ccccc1)NC(=O)[C@H](CC(=O)O)NCCC1(c2ccc(O)c(OC)c2)CCCC1 [Compound 20, N-[N-[2-[1-(3-methoxy-4-hydroxyphenyl)cyclopentyl]ethyl]-L-α-aspartyl]-L-phenylalanine 1-methyl ester]
Sweetness (sweetening potency): 30000 times the sweetness of sugar
sweetness potency: 30000

COC(=O)[C@H](Cc1ccccc1)NC(=O)[C@H](CC(=O)O)NCCC(C)(C)c1ccc(C)c(O)c1 [Compound 19, N-[N-[3-(3-hydroxy-4-methylphenyl)-3-methylbutyl]-L-α-aspartyl]-L-phenylalanine 1-methyl ester]
Sweetness (sweetening potency): approximately 60000 times the sweetness of sugar
Sweetness (sweetening potency) (listed as Example 22): 60000 times the sweetness of sugar
sweetness potency: 60000

COC(=O)[C@H](Cc1ccccc1)NC(=O)[C@H](CC(=O)O)NCCC(C)c1ccc(OC)cc1 (mixture of isomers) [Compound 1, N-[N-[(RS)-3-(4-methoxyphenyl)butyl]-L-α-aspartyl]-L-phenylalanine 1-methyl ester]
Sweetness (sweetening potency): 16000 times the sweetness of sugar
sweetness potency: 16000

COC(=O)[C@H](Cc1ccccc1)NC(=O)[C@H](CC(=O)O)NCCC(C)(C)c1ccc(O)c(C)c1 [Compound 18, N-[N-[3-(3-methyl-4-hydroxyphenyl)-3-methylbutyl)-L-α-aspartyl]-L-phenylalanine 1-methyl ester]
Sweetness (sweetening potency): approximately 70000 times the sweetness of sugar
Sweetness (sweetening potency) (listed as Example 11): 70000 times the sweetness of sugar
sweetness potency: 70000

CCOC(=O)[C@H](Cc1ccccc1)NC(=O)[C@H](CC(=O)O)NCCC(C)(C)c1ccc(OC)c(O)c1 [Compound 21, N-[N-[3-(3-hydroxy-4-methoxyphenyl)-3-methylbutyl]-L-α-aspartyl]-L-phenylalanine 1-ethyl ester]
Sweetness (sweetening potency): 15000 times the sweetness of sugar
sweetness potency: 15000

COC(=O)[C@H](Cc1ccccc1)NC(=O)[C@H](CC(=O)O)NCCC(C)(C)c1ccccc1O [Compound 13, N-[N-[3-(2-hydroxyphenyl)-3-methylbutyl]-L-α-aspartyl]-L-phenylalanine 1-methyl ester]
Sweetness (sweetening potency): 8000 times the sweetness of sugar
sweetness potency: 8000

COC(=O)[C@H](CC1CCCCC1)NC(=O)[C@H](CC(=O)O)NCCC(C)c1ccc(OC)c(O)c1 (mixture of isomers) [Compound 6]
Sweetness (sweetening potency): 40000 times the sweetness of sugar
sweetness potency: 40000

COC(=O)[C@H](Cc1ccccc1)NC(=O)[C@H](CC(=O)O)NCCC(C)(C)c1ccc2c(c1)OCO2 [Compound 16, N-[N-[3-(3,4-methylenedioxyphenyl)-3-methylbutyl]-L-α-aspartyl]-L-phenylalanine-1-methyl ester]
Sweetness (sweetening potency): 30000 times the sweetness of sugar
sweetness potency: 30000

COC(=O)[C@H](Cc1ccccc1)NC(=O)[C@H](CC(=O)O)NCCC(C)(C)c1ccc(OC)c(C)c1 [Compound 17, N-[N-[3-(3-methyl-4-methoxyphenyl)-3-methylbutyl]-L-α-aspartyl]-L-phenylalanine 1-methyl ester]
Sweetness (sweetening potency): 30000 times the sweetness of sugar
sweetness potency: 30000

COC(=O)[C@H](Cc1ccccc1)NC(=O)[C@H](CC(=O)O)NCCC(C)(C)c1ccc(OC)cc1O [Compound 14, N-[N-[3-(2-hydroxy-4-methoxyphenyl)-3-methylbutyl]-L-α-aspartyl]-L-phenylalanine 1-methyl ester]
Sweetness (sweetening potency): 20000 times the sweetness of sugar
sweetness potency: 20000

COC(=O)[C@](C)(Cc1ccccc1)NC(=O)[C@H](CC(=O)O)NCCC(C)(C)c1ccc(OC)c(O)c1 [Compound 22]
Sweetness (sweetening potency): 40000 times the sweetness of sugar
sweetness potency: 40000

COC(=O)[C@H](Cc1ccccc1)NC(=O)[C@H](CC(=O)O)NCCC(C)c1ccc(O)c(OC)c1 (mixture of isomers) [Compound 3, N-[N-[(RS)-3-(3-methoxy-4-hydroxyphenyl)butyl]-L-α-aspartyl]-L-phenylalanine 1-methyl ester]
Sweetness (sweetening potency): 30000 times the sweetness of sugar
sweetness potency: 30000

COC(=O)[C@H](Cc1ccccc1)NC(=O)[C@H](CC(=O)O)NCCC(C)c1ccc(O)c(C)c1 (mixture of isomers) [Compound 11, N-[N-[(RS)-3-(3-methyl-4-hydroxyphenyl)butyl]-L-α-aspartyl]-L-phenylalanine 1-methyl ester]
Sweetness (sweetening potency): 50000 times the sweetness of sugar
sweetness potency: 50000

COC(=O)[C@H](Cc1ccccc1)NC(=O)[C@H](CC(=O)O)NCCC(C)(C)c1ccc(OC)cc1 [Compound 7, N-[N-[3-(4-methoxyphenyl)-3-methylbutyl]-L-α-aspartyl)-L-phenylalanine 1-methyl ester]
Sweetness (sweetening potency): 25000 times the sweetness of sugar
sweetness potency: 25000

COC(=O)[C@H](Cc1ccccc1)NC(=O)[C@H](CC(=O)O)NCCC(C)(C)c1ccc(OC)c(O)c1
Sweetness (sweetening potency): approximately 70000 times the sweetness of sugar

COC(=O)[C@H](Cc1ccccc1)NC(=O)[C@H](CC(=O)O)NCCC(C)c1cccc(O)c1 (mixture of isomers) [Compound 2, N-[N-[(RS)-3-(3-hydroxyphenyl)butyl]-L-α-aspartyl]-L-phenylalanine 1 methyl ester]
Sweetness (sweetening potency): 12000 times the sweetness of sugar
sweetness potency: 12000

COC(=O)[C@H](Cc1ccccc1)NC(=O)[C@H](CC(=O)O)NCCC(C)c1ccc(OC)c(O)c1 (mixture of isomers) [Compound 4, N-[N-[(RS)-3-(3-hydroxy-4-methoxyphenyl)butyl]-L-α-aspartyl]-L-phenylalanine 1-methyl ester]
Sweetness (sweetening potency): approximately 50000 times the sweetness of sugar
Sweetness (sweetening potency) (listed as Example 17): 50000 times the sweetness of sugar
sweetness potency: 50000

COC(=O)[C@H](Cc1ccc(O)cc1)NC(=O)[C@H](CC(=O)O)NCCC(C)c1ccc(O)c(OC)c1 (mixture of isomers) [Compound 5, N-[N-[(RS)-3-(3-methoxy-4-hydroxyphenyl)butyl]-L-α-aspartyl]-L-tyrosine 1-methyl ester]
Sweetness (sweetening potency): 25000 times the sweetness of sugar
sweetness potency: 25000

COC(=O)[C@H](Cc1ccccc1)NC(=O)[C@H](CC(=O)O)NCC(C)Cc1ccc(OC)c(O)c1 (mixture of isomers) [Compound 12, N-[N-[3-(3-hydroxy-4-methoxyphenyl)-(RS)-2-methylpropyl)-L-α-aspartyl)-L-phenylalanine 1-methyl ester]
Sweetness (sweetening potency): 5000 times the sweetness of sugar
sweetness potency: 5000
